Nine compounds from patent publication EP4778929A1, “NOVEL TYPE I TOPOISOMERASE INHIBITOR, AND PREPARATION METHOD THEREFOR AND USE THEREOF” (priority 2023, dated 2025) can be followed below.

The structures appear in SMILES notation. Read-outs that look alike come from different tables or passages of the source.

One series deals with T1, topoisomerase I (Topo I) (Homo sapiens, UniProt P11387).
T1 sequence (P11387 1-765): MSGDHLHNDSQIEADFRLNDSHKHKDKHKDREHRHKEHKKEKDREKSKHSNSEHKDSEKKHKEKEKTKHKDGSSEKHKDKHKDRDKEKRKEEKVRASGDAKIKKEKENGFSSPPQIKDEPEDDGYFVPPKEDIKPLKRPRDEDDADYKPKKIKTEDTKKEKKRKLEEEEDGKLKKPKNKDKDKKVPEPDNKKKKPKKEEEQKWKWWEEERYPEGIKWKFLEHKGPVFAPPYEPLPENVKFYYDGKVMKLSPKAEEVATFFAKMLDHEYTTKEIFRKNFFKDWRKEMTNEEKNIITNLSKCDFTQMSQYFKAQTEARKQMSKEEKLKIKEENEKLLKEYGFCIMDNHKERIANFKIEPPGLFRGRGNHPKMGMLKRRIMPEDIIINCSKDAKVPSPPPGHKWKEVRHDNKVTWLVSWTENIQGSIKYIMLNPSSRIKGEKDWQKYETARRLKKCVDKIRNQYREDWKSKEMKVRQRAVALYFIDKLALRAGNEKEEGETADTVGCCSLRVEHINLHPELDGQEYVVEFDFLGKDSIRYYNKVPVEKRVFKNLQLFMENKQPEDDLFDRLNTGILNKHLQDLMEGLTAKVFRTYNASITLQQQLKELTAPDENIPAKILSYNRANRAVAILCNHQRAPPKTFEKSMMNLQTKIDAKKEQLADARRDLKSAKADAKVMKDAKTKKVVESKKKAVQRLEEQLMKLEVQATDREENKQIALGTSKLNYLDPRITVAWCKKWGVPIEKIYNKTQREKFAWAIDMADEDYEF
The series can be described thus: Topo I enzyme-inhibitory activity by agarose-gel electrophoresis (plasmid relaxation). The series is classed as biochemical. Put shortly:
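Supercoiled pNO1 plasmid (0.5 µg) was relaxed by Topo I (0.75 U) in 20 mM Tris-HCl pH 7.5, 200 mM NaCl, 0.25 mM EDTA, 5 % glycerol, 5 % DMSO final, for 30 min at 37 °C. Supercoiled band intensity on agarose gel was normalized to no-enzyme and vehicle controls. IC50 from a four-parameter logistic fit.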

For a further series, the system named is HCT116 cells. Briefly: Inhibition of cell proliferation by CTG (CellTiter-Glo) luminescence assay. The series is classed as cell-based. Particulars: Homo sapiens, read-out: HCT116, IC50. Put shortly: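 Nine-point 1:3 dilutions applied to HCT116 cells (2 000/well, McCoy's 5a + 10 % FBS) for 72 h at 37 °C, final DMSO 0.25 %. Viability read by CellTiter-Glo luminescence; % inhibition versus DMSO controls fitted to four-parameter logistic for IC50.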
(ATP-based viability assays read luminescence as a measure of living cells.)

Series [1] relates to Human colon cancer HCT116 cells. Briefly: Subcutaneous xenograft model of human colon cancer HCT-116 cells. The series is classed as in vivo, BALB/c nude mice. The settings on record: day 21 post-treatment, 5 mg/kg, IV, BIW×3W; for tumor volume: vehicle control 1146 mm^3. The protocol:
Test Example 4. Pharmacodynamic Evaluation of Compound 2, Compound 250, and Compound 253 in a Subcutaneous Xenograft Model of Human Colon Cancer HCT-116 Cells in BALB/c Female Nude Mice
Human colon cancer HCT116 cells were cultured in vitro as monolayers in McCoys 5a medium supplemented with 10% fetal bovine serum and 1% penicillin/streptomycin/amphotericin B at 37 °C in a 5% CO2 incubator. Cells were routinely passaged twice a week using trypsin-EDTA digestion. When cells reached 80%-90% confluence and the required cell number was achieved, cells were harvested. HCT116 cells (0.1 mL, 5×10^6 cells) were subcutaneously inoculated into the right dorsal region near the upper forelimb of each mouse (BALB/c nude mice, female, 6-8 weeks old). Treatment was initiated when the average tumor volume reached approximately 158 mm^3. Tumor volume was measured twice weekly. At the end of the experiment, the tumor growth inhibition rate (TGI) was calculated as: TGI (%) = [1 - (average tumor volume at the end of treatment in a particular group - average tumor volume at the start of treatment in that group) / (average tumor volume at the end of treatment in the vehicle control group - average tumor volume at the start of treatment in the vehicle control group)] × 100%.
(§1) Experimental Groups and Dosing Regimen:
• 1, Vehicle control group • 2, Compound 2, 5 mg/kg, IV, BIW×3W • 3, Compound 250, 5 mg/kg, IV, BIW×3W • 4, Compound 253, 5 mg/kg, IV, BIW×3W
Background: A xenograft is tissue or cells of one species grown in another, often human tumour cells in immunodeficient mice.

In series [2] the test system is Human colon cancer CR00090 cells. The series can be described thus: CR00090 human colon cancer model (subcutaneous). Particulars: day 28 post-treatment, 5 mg/kg, IV, BIW×4W; for tumor volume: vehicle control 1093 mm^3. The series is classed as in vivo, NPSG mice. The protocol: Test Example 5: Pharmacodynamic Evaluation of Compound 117, Compound 250, and Compound 253 in the CR00090 Human Colon Cancer Model
Human colon cancer CR00090 cells were thawed, counted, and mixed with Matrigel at a 1:1 ratio. Then, 0.1 mL (5×10^5 cells) of CR00090 cells were subcutaneously inoculated into the right dorsal region near the upper forelimb of each mouse (NPSG mice, female, 6-8 weeks old). Treatment was initiated when the average tumor volume reached approximately 84 mm^3. Tumor volume was measured twice weekly. At the end of the experiment, the tumor growth inhibition rate (TGI) was calculated as: TGI (%) = [1 - (average tumor volume at the end of treatment in a particular group - average tumor volume at the start of treatment in that group) / (average tumor volume at the end of treatment in the vehicle control group - average tumor volume at the start of treatment in the vehicle control group)] × 100%.
as §1
• 1, Vehicle control group • 2, Compound 117, 5 mg/kg, IV, BIW×4W • 3, Compound 250, 5 mg/kg, IV, BIW×4W • 4, Compound 253, 5 mg/kg, IV, BIW×4W

The next series can be described thus: in vivo. The settings on record: male, CD-1, mouse. The protocol: Test Example 3. Pharmacokinetic Study for Determining Compound Concentrations in Mice by LC-MS/MS
Principle: LC-MS/MS is used to quantify the plasma concentrations of the test article at successive time points, generating an in-vivo pharmacokinetic profile.
Procedure: The test compound was dissolved in DMSO to prepare a 10 mg/mL stock solution. This stock was further diluted to 1 mg/mL with a vehicle consisting of 10 % DMSO + 10 % Solutol HS-15 + 80 % saline. Male CD-1 mice (JH Laboratory Animal Co., LTD) were employed; six animals were assigned per compound group. […] Serial blood samples (~50 µL whole blood, K2EDTA anticoagulant) were collected at 0.083, 0.25, 0.5, 1, 2, 4, 8 and 24 h (three mice per time point in a crossover design). Blood was centrifuged at 6 000 g for 5 min at 4 °C; plasma was harvested and stored at -70 °C until analysis. Plasma drug concentrations were determined by LC-MS/MS.
Calibration Curve and QC Preparation: Working solutions were prepared by dilution with MeOH:H2O (1:1). For each calibration or QC level, 3 µL of working solution was spiked into 57 µL of blank mouse plasma.
Sample Processing: To 30 µL of plasma was added 200 µL of methanol containing the internal standard (propranolol, 40 ng mL^-1). After vortex-mixing for 1 min, the mixture was centrifuged at 12 000 rpm for 10 min. A 100 µL aliquot of the supernatant was transferred to a clean plate for injection.
Pharmacokinetic Analysis: Concentration-time data were analyzed with WinNonlin 8.2 using a non-compartmental approach to derive PK parameters including Cmax, Tmax, AUC and terminal elimination half-life (t1/2). AUC was calculated by the linear-up/log-down trapezoidal method. Table 3. Pk parameters of compounds

The mark [3] stands for this setting: read-out: inhibition of topoisomerase I (Topo I) enzymatic activity, IC50; 0.75 U Topo I, pNO1 plasmid, 37 °C, 30 min; compounds listed by group (Group A / Group B).
[4] abbreviates: 0.75 U Topo I, pNO1 plasmid, 37 °C, 30 min; compounds listed by group (Group A / Group B); read-out: inhibition of topoisomerase I (Topo I) enzymatic activity, IC50.
[5] abbreviates: HCT-116, 72 h incubation, CellTiter-Glo.

`CC[C@@]1(O)C(=O)OCc2c1cc1n(c2=O)Cc2c-1c(=O)c1cc(F)ccc1n2CCN1C2CCC1CC(F)(F)C2` [Example 187]: the IC50 (in general, the midpoint of a concentration-inhibition curve) at topoisomerase I (Topo I) (setting [3]) was 200 to 500 nM; in the series with HCT116 cells (HCT-116, 72 h) it was < 20 nM.
For `CC[C@@]1(O)C(=O)OCc2c1cc1n(c2=O)Cc2c-1c(=O)c1cc(F)ccc1n2CCN1CCC(F)(F)CC1` [Example 190], in that order: < 200 nM and < 20 nM.
For `CC[C@@]1(O)C(=O)OCc2c1cc1n(c2=O)Cc2c-1c(=O)c1cc(F)c(CN(C)C3CC3)cc1n2C1CC1` [Example 225], in that order: 200 to 500 nM and < 20 nM.
For `CC[C@@]1(O)C(=O)OCc2c1cc1n(c2=O)Cc2c-1c(=O)c1cc(F)c(CNC3CC3)cc1n2C1CCCC1` [Example 227], in that order: 200 to 500 nM and < 20 nM.
With `CC[C@@]1(O)C(=O)OCc2c1cc1n(c2=O)Cc2c-1c(=O)c1cc(F)c(CN(C)C3CC3)cc1n2C1CCCC1` [Example 228], the figures for the IC50 on topoisomerase I (Topo I) (setting [4]) and with HCT116 cells (setting [5]) were 200 to 500 nM and < 20 nM, respectively.
In series [1], `CC[C@@]1(O)C(=O)OCc2c1cc1n(c2=O)Cc2c-1c(=O)c1cc(F)ccc1n2[C@@H]1CCN(C)C1` [Example 250, (S)-4-ethyl-8-fluoro-4-hydroxy-11-((R)-1-methylpyrrolidin-3-yl)-1,12-dihydro-14H-pyrano[3',4':6,7]indolizino[2,1-b] quinoline-3,6,14(4H,11H)-trione] returned a TGI of 83.1% and a tumor volume of 326 mm^3. In series [2], this compound yielded a TGI of 80.0% and a tumor volume of 286 mm^3. Besides, the IC50 in the series with HCT116 cells (setting [5]) was < 20 nM. In addition, the bioavailability (usually dose-corrected exposure relative to a reference, in per cent) in the series “in vivo” was found to be 35.9%. For the same compound, in the series “in vivo” (iv, 2 mg/kg), the AUC(0-t) (in general, exposure summed from dosing to a finite time, without extrapolation to infinity) was 543 ng·h/mL; the concentration peaked (Cmax) at 1210 ng/mL; the clearance (as a rule, the volume of plasma or blood freed of the substance per unit of time) is 62.9 mL/min/kg; the half-life (commonly how long it takes for the measured level to halve) is 17.9 min. Besides, in “in vivo” (po, 20 mg/kg), the AUC(0-t) worked out at 1930 ng·h/mL; the concentration peaked (Cmax) at 1120 ng/mL; the Tmax – broadly, the time from dosing to the highest level – came out at 30 min; the half-life was 231 min.
On to `CC[C@@]1(O)C(=O)OCc2c1cc1n(c2=O)Cc2c-1c(=O)c1cc(F)ccc1n2[C@@H]1CCN(C2CCC2)C1` [Example 253, (S)-4-ethyl-8-fluoro-4-hydroxy-11-((R)-1-cyclobutylpyrrolidin-3-yl)-1,12-dihydro-14H-pyrano[3',4':6,7]indolizino[2,1-b]quinoline-3,6,14(4H,11H)-trione], for which, in series [1], the TGI turned out to be 80.6% and the tumor volume came out at 351 mm^3. In addition, in series [2], the TGI amounted to 76.3% and the tumor volume came to 323 mm^3. For the same compound, the IC50 in the series on HCT116 cells (setting [5]) was < 20 nM.
`CC[C@@]1(O)C(=O)OCc2c1cc1n(c2=O)Cc2c-1c(=O)c1cc(F)c(N)cc1n2-c1ccc2c(c1)OC(F)(F)O2` [Example 354]: the IC50 at topoisomerase I (Topo I) (setting [3]) was < 200 nM; with HCT116 cells (HCT-116, 72 h), < 20 nM.
Take `CC[C@@]1(O)C(=O)OCc2c1cc1n(c2=O)Cc2c-1c(=O)c1cc(F)c(N)cc1n2-c1cc(OC)cc(C(C)C)c1` [Example 355]: the IC50 at topoisomerase I (Topo I) (setting [4]) is 200 to 500 nM; in the series with HCT116 cells (setting [5]), < 20 nM.
